Data published in patent publication US20160113931A1, “Method of treating and/or preventing neurodegenerative diseases” (University of Macau, priority 2014, published 2016).
“Also recorded” adds a separate entry of the source.

Assays:
[1] = test system: cerebellar granule neurons (CGNs); assay: MPP+-induced neurotoxicity in primary cerebellar granule neurons (MTT assay); format: cell-based, mice; conditions: 10 and 30 μM, 2 h pre-treatment, 40 μM MPP+ 24 h
Method: (§1) Cerebellar tissue slice were treated with 30 μM BHDPC with or without MPP^+ for 72 h and then were stained with PI.
The percentage of surviving cells was estimated by determining the activity of mitochondrial dehydrogenases with 3(4,5-dimethylthiazol-2-yl)-2,5-diphenyltetrazolium bromide (MTT) assay. After drug treatment, cells were incubated at 37° C. for 4 h in 0.5 mg/mL MTT solution. The medium was then removed, and 100 μL of DMSO was added to each well to dissolve the violet formazan crystals. The absorbance of the samples was measured at a wavelength of 570 nm with 655 nm as a reference wavelength. All values were normalized to the control groups.
Rat CGNs were prepared from 8-day-old Sprague-Dawley rats (The Animal Care Facility, The Hong Kong Polytechnic University) as described in our previous publication. Briefly, neurons were seeded at a density of 2.7×10^5 cells/ml in basal modified Eagle's medium (Invitrogen) containing 10% fetal bovine serum, 25 mM KCl, 2 mM glutamine, and penicillin (100 units/ml)/streptomycin (100 μg/ml). […]
To further confirm the effect of BHDPC on primary neurons, mice cerebellar granule neurons were treated with BHDPC at the indicated concentrations for 2 hours and then exposed to 40 μM MPP^+. Cell viability was measured by the MTT assay at 24 hours after the MPP^+ challenge.

[2] = test system: SH-SY5Y cells; assay: MPP+-induced LDH leakage in SH-SY5Y cells (LDH assay); format: cell-based, human; conditions: 2 h pre-treatment, MPP+ 36 h, MPP+ alone 209%, normalized to control
Method: Cells were pre-treated with BHDPC (3, 10 and 30 μM) for 2 h and then incubated with or without 1 mM MPP^+ for further 24 h. Cell viability was measured by the MTT assay.
Cell cytotoxicity was also determined by measuring the activity of LDH released into the incubation medium when cellular membranes were damaged. Cells were seeded at 96-well plates (5×10^3 cells/well). After treatment, the released LDH activity in the medium was measured according to the instructions of the Cytotoxicity Detection Kit (Roche Applied Science, Mannheim, Germany). Absorbance at 490 nm was measured using SpectraMax M5. All values of LDH released were normalized to the control group.
The protective activity of BHDPC was also confirmed by the lactate dehydrogenase (LDH) assay. SH-SY5Y cells were treated with BHDPC for 2 h before exposed to MPP^+ for 36 h.

[3] = test system: cerebellar tissue slices; assay: MPP+-induced cell death in cerebellar tissue slice culture (PI and NeuN staining); format: cell-based, rat; conditions: 30 μM, MPP+ 3 days
Method: as §1
Following decapitation, brains of post-natal Day 9-10 SD rat were dissected out and sagittal slices (300 μm) of the cerebellum were immediately cut using a McIlwain tissue chopper, the slices were then isolated in Eagle's medium with Earle's salts medium (MEM) on ice and then placed on Millipore Millicell-CM™ organotypic culture inserts in pre-warmed medium containing MEM, Earle's balanced salt solution, heat-inactivated horse serum, GlutaMAX™, Fungizone®, and penicillin-streptomycin (each from Invitrogen), and glucose (Sigma). […]
After 3-4 days treatment of MPP^+ together with BHDPC, slices were fixed with 4% paraformaldehyde and then stained by immunohistochemistry. […] Three to four separate slice isolations (about 4-5 pups/isolation) were used, with 3-5 slices analysed from each isolation for each factor and dose.
Slices were fixed with 4% paraformaldehyde at room temperature for 1 hour, blocked with 5% donkey serum, 0.3% Triton™ X-100, and then incubated in primary antibodies for 2 days at 4° C. […] Confocal z-stacks were acquired (at 1.3 μm intervals and 10-15 images were acquired per stack) with a Leica SPE confocal microscope and images analysed using NIH ImageJ. […]

## COc1cc(C2C(C(=O)OCc3ccccc3)=C(C)Nc3nnnn32)ccc1O (stereo not drawn) [BHDPC, benzyl 7-(4-hydroxy-3-methoxyphenyl)-5-methyl-4,7-dihydrotetrazolo[1,5-a]pyrimidine-6-carboxylate]
[1]
  MPP+-induced neuronal death (cell viability, MTT): reduced MPP^+-induced dopaminergic neuronal death; also recorded: prevented MPP^+-induced neuronal death
[2]; 3 μM
  MPP+-induced LDH leakage: 200%
[2]; 10 μM
  MPP+-induced LDH leakage: 184%
[2]; 30 μM
  MPP+-induced LDH leakage: 170%
[3]
  MPP+-induced CNS cells death and neurons death in brain slices: prevented MPP^+-induced neuronal death
[3]; listed as BHDPCs
  MPP+-induced CNS cells death and neurons death in brain slices: attenuated
